“Also recorded” adds a separate entry of the source.
Experiments:
[1] = tested on: progressive multiple sclerosis patients; test: Clinical evaluation (EDSS, maximum walking distance, walking speed) after repeated intrathecal TCA applications; type: in vivo, human; conditions: for clinical benefit / functional recovery: not immediately responding patients
Protocol: Subjects. 25 MS patients (age: 50±1.64 [mean±SEM, years] were studied. The average MS duration was 14.02±1.71 [years]. The subjects included 14 women and 11 men. The subjects included 13 secondary progressive [8 women, 5 men] and 12 primary progressive [6 women, 6 men]). […] Design. TCA application was followed by a mandatory stay in bed for at least six hours in order to support and ease the diffusion of TCA in the CSF and the spinal cord. Lumbar puncture was performed with an atraumatic Sprotte needle. The preexisting immune system modulating drug therapy remained stable. Spasticity reducing therapy was not changed. Expanded Disability Status Score (EDSS) ratings, maximum walking distance, and walking speed assessments were performed at baseline and on each day after a 40 mg Triamcinolone acetonide (TCA) administration, dissolved in 10 ml saline, up to the fourth TCA application. Statistics. ANCOVA with repeated measures design were employed for this exploratory analysis of this pilot trial. Covariates were MS duration, MS types, sex and age as covariates. The post hoc analysis was done with the Tukey's multiple comparisons test against baseline. The statistical analysis was performed with GraphPad Prism 5 Software. […] Clinical evaluation was performed at baseline and on each day after a triamcinolone administration in 25 progressive multiple sclerosis patients. Before the TCA was administered to a patient, 1-2 ml aliquots of CSF were withdrawn. RGMa concentrations were determined before each triamcinolone application by western blot analysis with quantification. Dependent on the disease activity, the patients usually received 4-6 TCA applications.

RGMa = RGMa levels in cerebrospinal fluid by Western blot with densitometric quantification; type: in vivo, human
[2] = tested on: progressive multiple sclerosis patients; test: Side effects during TCA therapy; type: in vivo, human; conditions: all participants (25 MS patients)
Protocol: Design. TCA application was followed by a mandatory stay in bed for at least six hours in order to support and ease the diffusion of TCA in the CSF and the spinal cord. Lumbar puncture was performed with an atraumatic Sprotte needle. The preexisting immune system modulating drug therapy remained stable. Spasticity reducing therapy was not changed. Expanded Disability Status Score (EDSS) ratings, maximum walking distance, and walking speed assessments were performed at baseline and on each day after a 40 mg Triamcinolone acetonide (TCA) administration, dissolved in 10 ml saline, up to the fourth TCA application. […] Clinical evaluation was performed at baseline and on each day after a triamcinolone administration in 25 progressive multiple sclerosis patients. Before the TCA was administered to a patient, 1-2 ml aliquots of CSF were withdrawn. RGMa concentrations were determined before each triamcinolone application by western blot analysis with quantification. Dependent on the disease activity, the patients usually received 4-6 TCA applications.

MS patients = conditions: cited from earlier work
[3] = treated MS patients, numerous TCA studies

CC1(C)O[C@@H]2C[C@H]3[C@@H]4CCC5=CC(=O)C=C[C@]5(C)[C@@]4(F)[C@@H](O)C[C@]3(C)[C@]2(C(=O)CO)O1 [TCA, triamcinolone acetonide]
walking speed ([1]; 8 not immediately responding patients, F=0.021, ns, FIG. 4C): no significant change; also recorded: no improved | EDSS scores ([1]; 8 not immediately responding patients, F=1, ns, FIG. 4A): no significant change; also recorded: no improved | maximum walking distances ([1]; 8 not immediately responding patients, F=1.52, ns, FIG. 4B): no significant change; also recorded: no improved | walking speed ([1]; 17 immediate responders (3 wheel chair bound excluded), F=3.42, p<0.01, FIG. 3C): improved | walking speed ([1]; 17 immediate responders (3 wheel chair bound excluded), F=3.42, p<0.01, FIG. 3C, listed as Triamcinolone Acetonide): went up | walking speed ([1]; 17 immediate responders (3 wheel chair bound excluded), F=3.42, p<0.01, FIG. 3C, listed as triamcinolone): ameliorated | maximum walking distances ([1]; 17 immediate responders (3 wheel chair bound excluded), F=3.64, p=0.01, FIG. 3B): improved | maximum walking distances ([1]; 17 immediate responders (3 wheel chair bound excluded), F=3.64, p=0.01, FIG. 3B, listed as Triamcinolone Acetonide): increased | maximum walking distances ([1]; 17 immediate responders (3 wheel chair bound excluded), F=3.64, p=0.01, FIG. 3B, listed as triamcinolone): ameliorated | EDSS scores ([1]; 17 immediate responders, 40 mg TCA intrathecal, repeated, F=8.55, p<0.009, FIG. 3A): improved | EDSS scores ([1]; 17 immediate responders, 40 mg TCA intrathecal, repeated, F=8.55, p<0.009, FIG. 3A, listed as Triamcinolone Acetonide): went down | EDSS scores ([1]; 17 immediate responders, 40 mg TCA intrathecal, repeated, F=8.55, p<0.009, FIG. 3A, listed as triamcinolone): improved | patients reporting a delayed improvement within three weeks after the TCA applications ([1]; among the 8 not immediately responding patients): 6 patients | clinical benefit / functional recovery [1]: no functional recovery | clinical benefit / functional recovery ([1]; listed as triamcinolone): no prompt clinical benefit | patients improved following treatment ([1]; of 25 progressive MS patients): 17 patients | patients who did not immediately respond during the observation period ([1]; of 25 progressive MS patients): 8 patients | RGMa concentrations in CSF (RGMa; not immediately responding patients): no decrease | RGMa 40 kDa form level in CSF (RGMa; not immediately responding patients, F=0.84, ns, FIG. 7A): No significant changes | RGMa 30 kDa form level in CSF (RGMa; not immediately responding patients, F=2.98, ns, FIG. 7B): No significant changes | RGMa levels in CSF (all investigated fragments) (RGMa; responders): decreased | RGMa 40 kDa form level in CSF (RGMa; responders, F=9.12, p<0.0001, FIG. 5A): decline | RGMa 30 kDa form level in CSF (RGMa; responders, less pronounced than 40 kDa, F=3.82, p<0.05, FIG. 5B): decline | RGMa levels in CSF (all investigated fragments) (RGMa; responders, listed as Triamcinolone Acetonide): reduction | RGMa levels in CSF (all investigated fragments) (RGMa; responders, listed as triamcinolone): declined | serious side effects [2]: no serious side effects | CSF synthesis of free radicals (MS patients; patients with a distinct immediate enhancement of upper and lower limb function): Reduced | EDSS (Expanded Disability Status Score) (MS patients; [3]): decreased | walking distance (MS patients; [3]): increased | walking speed (MS patients; [3]): decreased

Reference: US20220018855A1, “RGMa Fragment Based Diagnostic Assay” (ABBVIE DEUTSCHLAND GMBH & CO. KG, priority 2014, published 2022)
